# Test results as given in publication PMC6792352, “Limited Chemical Structural Diversity Found to Modulate Thyroid Hormone Receptor in the Tox21 Chemical Library” (Environmental Health Perspectives, 2019).
# Structures can show the parent of a compound that is named as a salt.
# Test: in vitro
# Conditions: rat, gh3-tre-luc cells
Structure (SMILES),CC50 at 24 h (AC50 (uM) modified / 1000),further results
"COc1ccccc1OC [1,2-Dimethoxybenzene]",,"CC50 at 24 h (AC50 (uM) modified / 1000, Tox21_110001=Tox21_302297, viability, 1 nM T3 present, 24 h): > 90 µM"
O=C1CCCCO1 [Tetrahydro-2H-pyran-2-one],> 90 µM,
"CC[N+](C)(CC)CC [N,N-Diethyl-N-methylethanaminium chloride]",> 90 µM,
COP(=S)(OC)Oc1ccc(S(=O)(=O)N(C)C)cc1 [Famphur],,"CC50 at 24 h (AC50 (uM) modified / 1000, Tox21_110001=Tox21_111946, viability, 1 nM T3 present, 24 h): > 50 µM; CC50 at 24 h (AC50 (uM) modified / 1000, Tox21_110001=Tox21_301907, viability, 1 nM T3 present, 24 h): > 90 µM"
Cc1nnc2n1-c1ccc(Cl)cc1C(c1ccccc1)=NC2 [Alprazolam],> 50 µM,
c1ccc2c(c1)-c1cccc3cccc-2c13 [Fluoranthene],> 90 µM,
CN(C/C=C/C#CC(C)(C)C)Cc1cccc2ccccc12 [Terbinafine],38.3 µM,
CCC(CC)C(=O)O [2-Ethylbutyric acid],> 90 µM,
CC1=CCC(=C(C)C)CC1 [Terpinolene],> 90 µM,
CC(C)NCC(O)COc1cccc2[nH]ccc12 (centres unmarked) [Pindolol],> 50 µM,
c1ccc(CC2=NCCN2)cc1 [Tolazoline hydrochloride],> 20 µM,
CC(NCCC(c1ccccc1)c1ccccc1)c1ccccc1 (centres unmarked) [Fendiline hydrochloride],6.49 µM,
CC(C)=CCC/C(C)=C/CC/C(C)=C/CC/C(C)=C/CC1=C(C)C(=O)c2ccccc2C1=O [Menatetrenone],> 50 µM,
O=S(=O)(O)C(F)(F)F [Trifluoromethanesulfonic acid],> 90 µM,
C[C@@H](O)[C@H]1C(=O)N2C(C(=O)O)=C(SCCN=CN)C[C@H]12 [Imipenem],> 20 µM,
COc1c(O)cc2c(c1O)[C@@H]1O[C@H](CO)[C@@H](O)[C@H](O)[C@H]1OC2=O [Bergenin monohydrate],> 20 µM,
O=C(O)CCl [Chloroacetic acid],,"CC50 at 24 h (AC50 (uM) modified / 1000, Tox21_110001=Tox21_201114, viability, 1 nM T3 present, 24 h): > 90 µM"
"CN(C)CCN(C)CCN(C)C [1,1,4,7,7-Pentamethyldiethylenetriamine]",> 90 µM,
CC/C=C\CC1=C(C)CCC1=O [Jasmone],> 90 µM,
"CC1=NN(c2cc(S(=O)(=O)O)ccc2Cl)C(=O)C1N=Nc1ccccc1 (centres unmarked) [C.I. Acid Yellow 34, monosodium salt]",92.1 µM,
Cc1ccc2c(c1N)C(=O)c1ccccc1C2=O [1-Amino-2-methylanthraquinone],78.4 µM,
CC(C)[C@@H](N)C(=O)O [D-Valine],> 50 µM,
COC(=O)CCCCCCCC(=O)OC [Dimethyl nonanedioate],> 90 µM,

Structure (SMILES),CC50 at 24 h (AC50 (uM) modified / 1000),further results
CCN(CC)CCOc1ccc(-c2nc3cc(Cl)ccc3s2)cc1 [Halethazole hydrochloride],8.14 µM,
CC(C)(O)CCc1ccccc1 [2-Methyl-4-phenylbutan-2-ol],> 90 µM,
CCCCCCCC(=O)Oc1c(Br)cc(C#N)cc1Br [Bromoxynil octanoate],> 90 µM,
COc1ccc2nc(N)sc2c1 [2-Amino-6-methoxybenzothiazole],> 90 µM,
"CC1=NC(C)OC1C (centres unmarked) [2,4,5-Trimethyl-3-oxazoline]",> 90 µM,
N#CCCl [Chloroacetonitrile],> 100 µM,
COP(=S)(OC)Oc1ccc([N+](=O)[O-])c(C)c1 [Fenitrothion],> 90 µM,
Cc1cc(Br)ccc1NC(=O)CCl [2-Chloro-N-(2-methyl-4-bromophenyl)acetamide],22.1 µM,
O=C1NCC2(CCN(CCc3ccccc3)CC2)O1 [Fenspiride hydrochloride],> 50 µM,
CCc1ccc(C(=O)C(C)CN2CCCCC2)cc1 (centres unmarked) [Eperisone hydrochloride],> 50 µM,
Nc1nc(NC2CC2)c2ncn([C@H]3C=C[C@@H](CO)C3)c2n1 [Abacavir],> 50 µM,
CN(C[C@@H](CC[N+]12CCC(C3CCCCC3)(CC1)CC2)c1ccc(Cl)c(Cl)c1)C(=O)c1cc(C(F)(F)F)cc(C(F)(F)F)c1 [UK-337312],17 µM,
CC(=O)C1C(=O)C=C(C)OC1=O (centres unmarked) [Dehydroacetic acid],> 90 µM,
NS(=O)(=O)C(F)(F)C(F)(F)C(F)(F)C(F)(F)C(F)(F)C(F)(F)C(F)(F)C(F)(F)F [Perfluorooctanesulfonamide],52.8 µM,
C[C@H](Cc1ccc(O)c(O)c1)[C@@H](C)Cc1ccc(O)c(O)c1 [Nordihydroguaiaretic acid],8.42 µM,
CCN(CC)C(=O)[C@@H]1C=C2c3cccc4[nH]cc(c34)C[C@H]2N(C)C1 [Lysergide],,"CC50 at 24 h (AC50 (uM) modified / 1000, Tox21_110001=Tox21_112872, viability, 1 nM T3 present, 24 h): > 200 µM; CC50 at 24 h (AC50 (uM) modified / 1000, Tox21_110001=Tox21_113508, viability, 1 nM T3 present, 24 h): > 50 µM"
CCCCC/C=C\CCC=O [(4Z)-4-Decenal],> 90 µM,
CCCCCCCC/C=C\CCCCCCCC(N)=O [(9Z)-Octadec-9-enamide],> 90 µM,
C/C(=N\Cc1ccccc1)c1ccccc1O [Oletimol],> 50 µM,
O=c1oc2ccccc2c(O)c1C(CC(O)c1ccc(-c2ccc(Br)cc2)cc1)c1ccccc1 (centres unmarked) [Bromadiolone],> 90 µM,
CSC(C)(C)/C=N/O [Aldicarb oxime],> 90 µM,
CCN(CCCc1ccccc1)CCCc1ccccc1 [Alverine citrate],> 20 µM,
COC(=O)c1ccccc1CS(=O)(=O)NC(=O)Nc1nc(OC)cc(OC)n1 [Bensulfuron-methyl],> 90 µM,

Structure (SMILES),CC50 at 24 h (AC50 (uM) modified / 1000),further results
C[C@]12CC[C@H]3[C@@H](CCC4=CC(=O)CC[C@@]43C)[C@@H]1CC[C@@H]2OC(=O)CCc1ccccc1 [Testosterone 17-phenylpropionate],,"CC50 at 24 h (AC50 (uM) modified / 1000, Tox21_110001=Tox21_113116, viability, 1 nM T3 present, 24 h): > 90 µM"
O=P(O)(O)CCCl [Ethephon],> 90 µM,
CCC(C)n1c(=O)[nH]c(C)c(Br)c1=O (centres unmarked) [Bromacil],> 90 µM,
CCCCOC(=O)CO [Butyl hydroxyacetate],> 90 µM,
O=C1CCCCC1CN1CCCCC1 (centres unmarked) [Pimeclone],,"CC50 at 24 h (AC50 (uM) modified / 1000, Tox21_110001=Tox21_111859, viability, 1 nM T3 present, 24 h): > 50 µM"
CC[C@H](C)C(=O)O[C@H]1CCC=C2C=C[C@H](C)[C@H](CC[C@@H]3C[C@@H](O)CC(=O)O3)[C@H]21 [Mevastatin],> 50 µM,
CC1CCCCN1CCCOC(=O)c1ccccc1 (centres unmarked) [Piperocaine hydrochloride],> 50 µM,
S=C(SSC(=S)N1CCCCC1)N1CCCCC1 [Dicyclopentamethylenethiuram disulfide],,"CC50 at 24 h (AC50 (uM) modified / 1000, Tox21_110001=Tox21_113156, viability, 1 nM T3 present, 24 h): 0.373 µM"
c1ccc2ccccc2c1 [Naphthalene],> 90 µM,
"NC(=O)c1c(Cl)cccc1Cl [2,6-Dichlorobenzamide]",> 90 µM,
CCOP(=O)(Sc1ccccc1)Sc1ccccc1 [Edifenphos],,"CC50 at 24 h (AC50 (uM) modified / 1000, Tox21_110001=Tox21_301355, viability, 1 nM T3 present, 24 h): > 90 µM"
"CCCCCCCCCCCCCCCCCC[N+](C)(C)CCC[Si](OC)(OC)OC [N,N-Dimethyl-N-(3-(trimethoxysilyl)propyl) octadecan-1-aminium chloride]",> 50 µM,
"C[N+](C)(C)CCCCCC[N+](C)(C)C [N,N,N,N',N',N'-Hexamethylhexane-1,6-diaminium]",> 50 µM,
COC(=O)[C@@H](N)CS [Methyl L-cysteinate hydrochloride],> 50 µM,
CC(=O)NCCCS(=O)(=O)O [Acamprosate calcium],> 40 µM,
CC[C@H]1OC(=O)C[C@@H](O)[C@H](C)[C@@H](O[C@@H]2O[C@H](C)[C@@H](O)[C@H](N(C)C)[C@H]2O)[C@@H](CCN2C[C@H](C)C[C@H](C)C2)C[C@@H](C)C(=O)/C=C/C(C)=C/[C@@H]1CO[C@@H]1O[C@H](C)[C@@H](O)[C@@H](OC)[C@H]1OC [Tilmicosin],> 50 µM,
CC[C@@H]([C@H](C)O)n1ncn(-c2ccc(N3CCN(c4ccc(OC[C@@H]5CO[C@@](Cn6cncn6)(c6ccc(F)cc6F)C5)cc4)CC3)cc2)c1=O [Posaconazole],26.4 µM,
Cc1nc(Nc2ncc(C(=O)Nc3c(C)cccc3Cl)s2)cc(N2CCN(CCO)CC2)n1 [Dasatinib],15.8 µM,
Cc1cccc(Nc2ncccc2C(=O)O)c1C [Nixylic acid],> 50 µM,
CC(C)CCON=O [3-Methylbutyl nitrite],,"CC50 at 24 h (AC50 (uM) modified / 1000, Tox21_110001=Tox21_111074, viability, 1 nM T3 present, 24 h): > 50 µM; CC50 at 24 h (AC50 (uM) modified / 1000, Tox21_110001=Tox21_200983, viability, 1 nM T3 present, 24 h): > 90 µM"
CNCCCN1c2ccccc2CCc2ccccc21 [Desipramine hydrochloride],7.08 µM,
OC(CN1CCC(Cc2ccc(F)cc2)CC1)c1ccc(Cl)cc1 (centres unmarked) [Eliprodil],> 50 µM,
